Where two headings read alike, the source gives them in different places.
Experiments:
V600E full-length B-Raf = molecular target: T1, V600E full-length B-Raf (Homo sapiens, UniProt P15056, V600E); assay: B-Raf IC50 assay (Example A); type: biochemical
T1 construct: 1 μM FSBA-MEK and 20 nM V600E full-length B-Raf; made in house; host or cells: Sf9 insect cells (baculovirus)
Excerpt: Determining the activity of Raf in the sample is possible by a number of direct and indirect detection methods (US 2004/0082014). Activity of human recombinant B-Raf protein may be assessed in vitro by assay of the incorporation of radio labeled phosphate to recombinant MAP kinase (MEK), a known physiologic substrate of B-Raf, according to US 2004/0127496 and WO 03/022840. The activity/inhibition of V600E full-length B-Raf was estimated by measuring the incorporation of radio labeled phosphate from [γ-^33P]ATP into FSBA-modified wild-type MEK (see Example A).
Activity of human recombinant B-Raf protein may be assessed in vitro by assay of the incorporation of radio labeled phosphate to recombinant MAP kinase (MEK), a known physiologic substrate of B-Raf, according to US 2004/0127496 and WO 03/022840. Catalytically active human recombinant B-Raf protein is obtained by purification from sf9 insect cells infected with a human B-Raf recombinant baculovirus expression vector.
The activity/inhibition of V600E full-length B-Raf was estimated by measuring the incorporation of radio labeled phosphate from [γ-^33P]ATP into FSBA-modified wild-type MEK. The 30-μL assay mixtures contained 25 mM Na Pipes, pH 7.2, 100 mM KCl, 10 mM MgCl2, 5 mM β-glycerophosphate, […], 4 μM ATP, 500 nCi [γ-^33P]ATP, 1 μM FSBA-MEK and 20 nM V600E full-length B-Raf. Incubations were carried out at 22° C. in a Costar 3365 plate (Corning). Prior to the assay, the B-Raf and FSBA-MEK were preincubated together in assay buffer at 1.5×(20 μL of 30 nM and 1.5 μM, respectively) for 15 minutes, and the assay was initiated by the addition of 10 μL of 10 μM ATP. Following the 60-minute incubation, the assay mixtures were quenched by the addition of 100 μL of 25% TCA, the plate was mixed on a rotary shaker for 1 minute, and the product was captured on a Perkin-Elmer GF/B filter plate using a Tomtec Mach III Harvester. After sealing the bottom of the plate, 35 μL of Bio-Safe II (Research Products International) scintillation cocktail were added to each well and the plate was top-sealed and counted in a Topcount NXT (Packard).

[1] = system: basal ERK1/2 phosphorylation in Malme-3M cells; assay: Cellular ERK 1/2 phosphorylation assay (Example A1); type: cell-based; settings: Homo sapiens, 1 hour incubation, pERK normalized to total ERK, read-out: P-ERK Malme3-M IC50
Procedure: Inhibition of basal ERK1/2 phosphorylation was determined by the following in vitro […], which comprises incubating cells with a compound of Formula I for 1 hour and quantifying the fluorescent pERK signal on fixed cells and normalizing to total ERK signal.
Malme-3M cells were obtained from ATCC and grown in RPMI-1640 supplemented with 10% fetal bovine serum. Cells were plated in 96-well plates at 24,000 cells/well and allowed to attach for 16-20 hours at 37° C., 5% CO2. The media was removed, and DMSO-diluted compounds were added in RPMI-1640 at a final concentration of 1% DMSO. The cells were incubated with the compounds for 1 hour at 37° C., 5% CO2. The cells were washed with PBS and fixed in 3.7% formaldehyde in PBS for 15 minutes. This was followed by washing in PBS/0.05% Tween20 and permeabilizing in −20° C. 100% MeOH for 15 minutes. Cells were washed in PBS/0.05% Tween20 then blocked in Odyssey blocking buffer (LI-COR Biosciences) for 1 hour. Antibodies to phosphorylated ERK (1:400, Cell Signaling #9106, monoclonal) and total ERK (1:400, Santa Cruz Biotechnology #sc-94, polyclonal) were added to the cells and incubated 16-20 hours at 4° C. After washing with PBS/0.05% Tween20, the cells were incubated with fluorescently-labeled secondary antibodies (1:1000 goat anti-rabbit IgG-IRDye800, Rockland and 1:500 goat anti-mouse IgG-Alexa Fluor 680, Molecular Probes) for an additional hour. Cells were then washed and analyzed for fluorescence at both wavelengths using the Odyssey Infrared Imaging System (LI-COR Biosciences). Phosphorylated ERK signal was normalized to total ERK signal.

[2] = B-Raf V600E assay of Example A, read-out: IC50
[3] = [γ-33P]ATP incorporation into FSBA-MEK, 4 μM ATP, read-out: BRAF V600E IC50

T1 sequence (P15056 whole entry V600E): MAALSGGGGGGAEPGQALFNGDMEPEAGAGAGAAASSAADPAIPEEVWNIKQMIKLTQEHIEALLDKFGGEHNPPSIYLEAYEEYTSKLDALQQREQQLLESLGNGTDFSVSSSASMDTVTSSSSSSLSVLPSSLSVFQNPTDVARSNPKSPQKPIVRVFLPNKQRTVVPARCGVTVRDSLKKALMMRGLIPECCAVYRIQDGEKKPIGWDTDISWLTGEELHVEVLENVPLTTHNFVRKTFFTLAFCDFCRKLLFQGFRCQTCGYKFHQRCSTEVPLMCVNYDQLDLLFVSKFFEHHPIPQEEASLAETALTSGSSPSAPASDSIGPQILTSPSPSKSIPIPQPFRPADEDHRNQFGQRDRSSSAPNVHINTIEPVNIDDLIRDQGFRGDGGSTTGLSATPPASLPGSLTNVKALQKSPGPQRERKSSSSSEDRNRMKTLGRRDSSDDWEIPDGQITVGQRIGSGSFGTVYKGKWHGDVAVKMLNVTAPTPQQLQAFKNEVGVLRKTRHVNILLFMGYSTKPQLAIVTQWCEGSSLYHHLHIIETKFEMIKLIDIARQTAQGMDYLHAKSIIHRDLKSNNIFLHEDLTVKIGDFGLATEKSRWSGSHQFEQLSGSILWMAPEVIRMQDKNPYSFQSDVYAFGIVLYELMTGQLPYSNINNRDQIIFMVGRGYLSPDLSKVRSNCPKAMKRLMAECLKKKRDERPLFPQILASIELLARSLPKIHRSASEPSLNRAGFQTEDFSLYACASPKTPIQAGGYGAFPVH

| SMILES | IC50 (V600E full-length B-Raf; [2]) | IC50 (V600E full-length B-Raf; [3]) | IC50 [1] |
| --- | --- | --- | --- |
| CN(C)S(=O)(=O)Nc1ccc(F)c(NC(=O)c2cccc3c(N)ncnc23)c1Cl [Example 39, 4-Amino-N-(2-chloro-3-(N,N-dimethylsulfamoylamino)-6-fluorophenyl)quinazoline-8-carboxamide] | < 100 nM | 7.5 nM | 32.7 nM |
| CCS(=O)(=O)Nc1ccc(Cl)c(NC(=O)c2cccc3c(N)ncnc23)c1F [Example 18, 4-Amino-quinazoline-8-carboxylic acid (6-chloro-3-ethanesulfonyl-amino-2-fluoro-phenyl)-amide] | < 100 nM | 1.53 nM | 18.2 nM |
| Nc1ncnc2c(C(=O)Nc3c(Cl)ccc(NS(=O)(=O)CCCF)c3F)ccnc12 [Example 67, 4-Amino-pyrido[3,2-d]pyrimidine-8-carboxylic acid [6-chloro-2-fluoro-3-(3-fluoro-propane-1-sulfonylamino)-phenyl]-amide] | < 100 nM | 0.42 nM | 2.8 nM |
| CCCS(=O)(=O)Nc1ccc(F)c(NC(=O)c2cc(C)cc3cncnc23)c1F [Example 79, 6-Methyl-quinazoline-8-carboxylic acid [2,6-difluoro-3-(propane-1-sulfonylamino)-phenyl]-amide] | < 100 nM | 58.8 nM | 254 nM |
| CCCS(=O)(=O)Nc1ccc(Cl)c(NC(=O)c2ccnc3c(N)ncnc23)c1F [Example 65, 4-Amino-pyrido[3,2-d]pyrimidine-8-carboxylic acid [6-chloro-2-fluoro-3-(propane-1-sulfonylamino)-phenyl]-amide] | < 100 nM | 1.14 nM | 9.4 nM |
| Nc1ncnc2c(C(=O)Nc3c(F)ccc(NS(=O)(=O)N4CCCC4)c3F)cccc12 [Example 34, 4-Amino-quinazoline-8-carboxylic acid [2,6-difluoro-3-(pyrrolidine-1-sulfonylamino)-phenyl]-amide] | < 100 nM | 12.7 nM | 15.6 nM |
| O=C(Nc1c(F)ccc(NS(=O)(=O)CC2CC2)c1F)c1cccc2cncnc12 [Example 56, Quinazoline-8-carboxylic acid (3-cyclopropylmethane-sulfonylamino-2,6-difluoro-phenyl)-amide] | < 1000 nM | 204 nM | 638 nM |
| CN(C)S(=O)(=O)Nc1ccc(F)c(NC(=O)c2cccc3c(N)ncnc23)c1F [Example 36, 4-Amino-N-(3-(N,N-dimethylsulfamoylamino)-2,6-difluorophenyl)quinazoline-8-carboxamide] | < 100 nM | 14.8 nM | 25.2 nM |
| CN(C)S(=O)(=O)Nc1ccc(Cl)c(NC(=O)c2cccc3c(N)ncnc23)c1F [Example 38, 4-Amino-N-(6-chloro-3-(N,N-dimethylsulfamoylamino)-2-fluorophenyl)quinazoline-8-carboxamide] | < 100 nM | 7.01 nM | 28 nM |
| O=C(Nc1c(Cl)ccc(NS(=O)(=O)CCCF)c1Cl)c1cccc2cncnc12 [Example 57, Quinazoline-8-carboxylic acid [2,6-dichloro-3-(3-fluoro-propane-1-sulfonylamino)-phenyl]-amide] | < 100 nM | 0.96 nM | 87.6 nM |
| Nc1ncnc2c(C(=O)Nc3c(F)ccc(NS(=O)(=O)c4ccccc4)c3F)cccc12 [Example 32, 4-Amino-quinazoline-8-carboxylic acid (3-benzenesulfonylamino-2,6-difluoro-phenyl)-amide] | < 100 nM | 0.38 nM | 17.7 nM |
| CCCS(=O)(=O)Nc1cccc(NC(=O)c2cccc3c(N)ncnc23)c1F [Example 8, 4-Amino-quinazoline-8-carboxylic acid [2-fluoro-3-(propane-1-sulfonylamino)-phenyl]-amide] | < 100 nM | 10.8 nM | 32.6 nM |
| CCCS(=O)(=O)Nc1ccc(F)c(NC(=O)c2cc(C)cc3c(N)ncnc23)c1F [Example 70, 4-Amino-6-methyl-quinazoline-8-carboxylic acid [2,6-difluoro-3-(propane-1-sulfonylamino)-phenyl]-amide] | < 100 nM | 1.4 nM | 8.59 nM |
| Cc1ncnc2c(C(=O)Nc3c(Cl)ccc(NS(=O)(=O)CCCF)c3Cl)cccc12 [Example 60, 4-Methyl-quinazoline-8-carboxylic acid [2,6-dichloro-3-(3-fluoro-propane-1-sulfonylamino)-phenyl]-amide] | < 100 nM | 0.82 nM | 53.4 nM |
| Nc1ncnc2c(C(=O)Nc3c(F)ccc(NS(=O)(=O)c4ccco4)c3F)cccc12 [Example 33, 4-Amino-quinazoline-8-carboxylic acid [2,6-difluoro-3-(furan-2-sulfonylamino)-phenyl]-amide] | < 100 nM | 0.17 nM | 12.5 nM |
| CC(C)CS(=O)(=O)Nc1ccc(Cl)c(NC(=O)c2cccc3c(N)ncnc23)c1F [Example 15, 4-Amino-quinazoline-8-carboxylic acid [6-chloro-2-fluoro-3-(2-methyl-propane-1-sulfonylamino)-phenyl]-amide] | < 100 nM | 0.5 nM | 6.08 nM |
| CCCS(=O)(=O)Nc1ccc(Cl)c(NC(=O)c2cccc3cncnc23)c1F [Example 58, Quinazoline-8-carboxylic acid [6-chloro-2-fluoro-3-(propane-1-sulfonylamino)-phenyl]-amide] | < 100 nM | 17.1 nM | 301 nM |
| CCCS(=O)(=O)Nc1cc(F)c(F)c(NC(=O)c2cccc3c(NCCF)ncnc23)c1F [Example 43, 4-(2-Fluoro-ethylamino)-quinazoline-8-carboxylic acid [2,3,6-trifluoro-5-(propane-1-sulfonylamino)-phenyl]-amide] | < 1000 nM | 293 nM | 2910 nM |
| CCCS(=O)(=O)Nc1ccc(F)c(NC(=O)c2ccnc3c(N)ncnc23)c1Cl [Example 63, 4-Amino-pyrido[3,2-d]pyrimidine-8-carboxylic acid [2-chloro-6-fluoro-3-(propane-1-sulfonylamino)-phenyl]-amide] | < 100 nM | 1.01 nM | 7.6 nM |
| Nc1ncnc2c(C(=O)Nc3c(Cl)ccc(NS(=O)(=O)CCCF)c3F)cccc12 [Example 25, 4-Amino-quinazoline-8-carboxylic acid [6-chloro-2-fluoro-3-(3-fluoro-propane-1-sulfonylamino)-phenyl]-amide] | < 100 nM | 0.09 nM | 2.21 nM |
| CCCS(=O)(=O)Nc1ccc(C#N)c(NC(=O)c2ccnc3c(N)ncnc23)c1F [Example 69, 4-Amino-pyrido[3,2-d]pyrimidine-8-carboxylic acid [6-cyano-2-fluoro-3-(propane-1-sulfonylamino)-phenyl]-amide] | < 100 nM | 19.5 nM | 306 nM |
| NC(=O)c1ccc(NS(=O)(=O)CCCF)c(F)c1NC(=O)c1ccnc2c(N)ncnc12 [Example 68, 4-Amino-pyrido[3,2-d]pyrimidine-8-carboxylic acid [6-carbamoyl-2-fluoro-3-(3-fluoro-propane-1-sulfonylamino)-phenyl]-amide] | < 100 nM | 14.5 nM | 124 nM |

— patent US20130018033A1, “RAF INHIBITOR COMPOUNDS AND METHODS OF USE THEREOF” (ARRAY BIOPHARMA INC., priority 2009, published 2013)
